The text below walks through data of patent US8629284B2, “Chemical compounds” (Syngenta Crop Protection, LLC, priority 2008, dated 2014).

Experiment [1] has as its system Myzus persicae. The experiment in a line: B3: Myzus persicae (green peach aphid), mixed population, systemic/feeding activity, curative. In kind it is in vivo. The settings on record: 144 h, roots of infested pea seedlings in test solution of 24 ppm, 6 days after introduction, read-out: control of Myzus persicae (mortality). The source says:
B3: Myzus persicae (green peach aphid) (mixed population, systemic/feeding activity, curative)
Roots of pea seedlings, infested with an aphid population of mixed ages, were placed directly in the test solutions of 24 ppm. 6 days after introduction, samples were checked for mortality and special effects on the plant.

The test system of experiment [2] is Myzus persicae. The experiment in a line: B2: Myzus persicae (green peach aphid), mixed population, feeding/residual contact activity, preventive. In kind it is in vivo. The settings on record: foliar, 144 h, sunflower leaf discs sprayed with 200 ppm, 6 days incubation, read-out: control of Myzus persicae (mortality). Here is the method: B2: Myzus persicae (green peach aphid) (mixed population, feeding/residual contact activity, preventive)
Sunflower leaf discs were placed on agar in a 24-well microtiter plate and sprayed with test solutions of 200 ppm. After drying, the leaf discs were infested with an aphid population of mixed ages. After an incubation period of 6 days, samples were checked for mortality and special effects (e.g. phytotoxicity).

In the case of `N=C1c2c(F)cccc2S(=O)(=O)N1CC1CC1` [Compound P2.3, 4-Fluoro-2-cyclopropylmethyl-1,2-benzisothiazol-3(2H)-imine 1,1-dioxide], the mortality at 24 ppm in experiment [1] was not below 80%.

On to `CCNC1=NS(=O)(=O)c2cccc(F)c21` [Compound P1.15, N-Ethyl-4-fluoro-1,2-benzisothiazol-3-amine 1,1-dioxide], for which the mortality at 200 ppm in experiment [2] was not below 65%. In addition, in experiment [1], the mortality at 24 ppm was not below 80%.
